# Test: Water solubility of catalyst
row,SMILES,Water solubility of catalyst
1,"CCCCCCC[CH2][Sn](=[O])[CH2]CCCCCCC [Dioctyltin oxide, reference compound]",Insoluble
2,"Cn1cc[n+](C)c1C(=O)[O-] [modified imidazole A, 1,3-dimethylimidazolium-2-carboxylate]",Soluble
3,CCCC[n+]1ccn(C)c1C(=O)[O-] [modified imidazole B],Soluble
4,Cn1cc[n+](C)c1/C([O-])=N\c1ccccc1 [modified imidazole C],Insoluble
5,CCCCCCCC[n+]1ccn(C)c1/C([O-])=N\c1ccccc1 [modified imidazole E],Insoluble
6,CCCCCCCCn1cc[n+](CCCCCCCC)c1/C([O-])=N\c1ccccc1 [modified imidazole F],Insoluble
7,Cn1cc[n+](C)c1.[Cl-] [reference compound],Soluble
